From ChEMBL document CHEMBL3091275, “Oxime-based inhibitors of glucose transporter 1 displaying antiproliferative effects in cancer cells” (Bioorg Med Chem Lett, 2013) come the findings set out here.

Active and inactive are the calls of the source. No cut-off for these calls is given here.

For assay [1], the target named is T1, Solute carrier family 2, facilitated glucose transporter member 1 (Homo sapiens) (UniProt P11166).
T1 sequence (whole entry): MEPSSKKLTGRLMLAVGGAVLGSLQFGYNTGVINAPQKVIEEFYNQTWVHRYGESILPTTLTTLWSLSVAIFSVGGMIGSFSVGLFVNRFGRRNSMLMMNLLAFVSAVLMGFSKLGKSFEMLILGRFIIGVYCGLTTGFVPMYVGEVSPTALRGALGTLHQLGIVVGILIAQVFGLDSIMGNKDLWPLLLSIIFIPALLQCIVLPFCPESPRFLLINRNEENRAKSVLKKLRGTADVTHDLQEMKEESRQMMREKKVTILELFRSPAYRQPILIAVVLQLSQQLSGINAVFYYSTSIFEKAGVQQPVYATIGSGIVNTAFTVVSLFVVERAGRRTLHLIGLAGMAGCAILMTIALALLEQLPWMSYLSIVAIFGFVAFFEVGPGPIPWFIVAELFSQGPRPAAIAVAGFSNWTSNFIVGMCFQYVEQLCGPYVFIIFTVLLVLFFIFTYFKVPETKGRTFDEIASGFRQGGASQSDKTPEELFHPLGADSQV
In words: Inhibition of GLUT1 in human H1299 cells assessed as inhibition of 2-deoxy-D-[3H]-glucose uptake at 30 uM incubated for 15 mins prior to 2-deoxy-D-[3H]-glucose addition measured after 30 mins by liquid scintillation counting analysis. Format: cell-based.

A short description of assay [2]: Cytotoxicity against human H1299 cells assessed as growth inhibition after 48 hrs by MTT assay. Format: functional, cell-based. To be noted: NCI-H1299, 48 h. (In general: Tetrazolium dyes change colour on reduction, which living cells bring about.)
Assay [3] addresses T2, Solute carrier family 2, facilitated glucose transporter member 1 (Homo sapiens, UniProt P11166).
T2 sequence (P11166 whole entry): T1 sequence (whole entry)
In words: Inhibition of GLUT1 in human H1299 cells assessed as inhibition of 2-deoxy-D-[3H]-glucose uptake incubated for 15 mins prior to 2-deoxy-D-[3H]-glucose addition measured after 30 mins by liquid scintillation counting analysis. Format: cell-based.

The test system of the next assay is NCI-H1299. Briefly: Cytotoxicity against human H1299 cells assessed as growth inhibition at 30 uM after 48 hrs by MTT assay. The assay is classed as functional, cell-based.
The next assay concerns the target Estrogen receptor beta (Homo sapiens, UniProt Q92731). Briefly: Displacement of [3H]E2 from full-length human ERbeta after 18 to 24 hrs by radiometric assay. For orientation: Displacement assays read how much labelled ligand stays bound in the presence of the test substance.
A further assay addresses T3, Estrogen receptor (Homo sapiens, UniProt P03372).
T3 sequence (P03372 whole entry): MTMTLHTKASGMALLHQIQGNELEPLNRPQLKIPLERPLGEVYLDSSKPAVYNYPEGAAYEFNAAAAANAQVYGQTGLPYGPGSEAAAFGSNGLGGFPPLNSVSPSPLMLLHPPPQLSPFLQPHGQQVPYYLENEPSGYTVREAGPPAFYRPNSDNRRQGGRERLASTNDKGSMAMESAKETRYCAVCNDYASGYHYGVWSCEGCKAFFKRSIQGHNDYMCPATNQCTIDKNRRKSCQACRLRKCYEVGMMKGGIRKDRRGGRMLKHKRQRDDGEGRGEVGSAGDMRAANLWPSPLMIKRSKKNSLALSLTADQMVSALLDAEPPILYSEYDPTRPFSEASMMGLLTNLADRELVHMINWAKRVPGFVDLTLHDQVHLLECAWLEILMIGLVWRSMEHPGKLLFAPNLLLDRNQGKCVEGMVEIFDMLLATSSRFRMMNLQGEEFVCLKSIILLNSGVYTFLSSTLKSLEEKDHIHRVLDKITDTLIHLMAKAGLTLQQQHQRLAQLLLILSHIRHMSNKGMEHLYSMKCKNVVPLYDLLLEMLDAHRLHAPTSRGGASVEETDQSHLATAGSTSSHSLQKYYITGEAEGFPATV
In words: Binding affinity to human estrogen receptor assessed as decrease in estradiol-dependent beta-galactosidase activity.

Sequence of Estrogen receptor beta (Q92731 whole entry): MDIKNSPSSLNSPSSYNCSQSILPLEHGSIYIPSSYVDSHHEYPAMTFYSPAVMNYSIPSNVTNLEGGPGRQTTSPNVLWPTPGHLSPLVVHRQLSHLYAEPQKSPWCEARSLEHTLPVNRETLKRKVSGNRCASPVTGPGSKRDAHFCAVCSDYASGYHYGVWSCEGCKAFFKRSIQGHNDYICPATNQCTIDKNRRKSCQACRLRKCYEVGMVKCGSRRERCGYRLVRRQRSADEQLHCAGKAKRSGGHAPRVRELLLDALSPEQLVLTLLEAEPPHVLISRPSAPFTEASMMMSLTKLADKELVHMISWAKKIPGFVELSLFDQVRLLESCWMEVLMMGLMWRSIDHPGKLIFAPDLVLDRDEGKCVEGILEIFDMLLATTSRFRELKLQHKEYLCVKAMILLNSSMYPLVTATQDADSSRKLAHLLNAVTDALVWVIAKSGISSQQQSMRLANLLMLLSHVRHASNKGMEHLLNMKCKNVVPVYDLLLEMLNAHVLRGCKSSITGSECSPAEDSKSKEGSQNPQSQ

On to `COc1ccc(-c2ccc(/C=N/O)c(O)c2C)cc1`, for which the inhibition entry in assay [1] was “Active”.
As for `C/C(=N\O)c1ccc(-c2ccc(O)c(F)c2)c(Cl)c1O`, the inhibition result in assay [1] was “Active”.
Consider `Cc1c(-c2ccc(O)cc2)ccc(/C=N/O)c1O`, for which the inhibition entry in assay [1] was “Active”.
Regarding `COc1ccc(-c2ccc(O)c(/C=N/O)c2)cc1F`, the 50% inhibitory concentration (IC50) in assay [2] came to 14.1 µM; in assay [3], 8.5 µM.
For the compound `O/N=C/c1c(O)ccc(-c2ccc(O)cc2)c1-c1ccc(O)cc1`, the inhibition entry in assay [1] was “Active”.
Take `COc1ccc(-c2ccc(/C(C)=N/O)c(O)c2Cl)cc1F`: the half-maximal inhibitory concentration (IC50) in assay [2] came out at 39.6 µM; in assay [3], 15.5 µM.
In the case of `O=C(Oc1cccc(F)c1OC(=O)c1cccc(O)c1)c1cccc(O)c1`, the results for the IC50 in assay [2] and in assay [3] were 20.4 µM and 10.9 µM, respectively.
Consider `O/N=C/c1c(O)ccc(-c2ccc(O)c(F)c2)c1Cl`, for which the inhibition result in assay [1] is “Active”.
As to `O/N=C/c1cc(-c2ccc(O)c(F)c2)ccc1O`, in assay [1], the inhibition result was “Active”. In the assay with NCI-H1299, the “growth inhibition (GI)” value was “Active”. The Kd on Estrogen receptor beta worked out at 0.051 µM.
As to `O/N=C/c1c(O)ccc(-c2ccc(O)cc2)c1Cl`, the inhibition entry in assay [1] is “Active”.
In the case of `O/N=C/c1cc(-c2ccc(O)cc2)ccc1O`, in assay [1], the inhibition entry is “Active”.
As to `N#Cc1c(-c2ccc(O)cc2)ccc(/C=N/O)c1O`, the inhibition result in assay [1] was “Active”.
For the compound `O=C(CCc1ccc(O)cc1)c1c(O)cc(O)cc1O` [PHLORETIN], the IC50 in assay [2] amounted to 54 µM; at Estrogen receptor, 0.3 µM; in assay [3] it was 21.4 µM.
For `COc1ccc(-c2ccc(O)c(/C=N/O)c2)cc1`, the 50% inhibitory concentration (IC50) in assay [2] came to 20.4 µM; in assay [3], 23.4 µM.
Consider `C/C(=N\O)c1ccc(-c2ccc(O)cc2)c(Cl)c1O`, for which the IC50 in assay [2] came out at 34.8 µM; in assay [3], 10.6 µM.

The IC50 is the concentration that gives 50% inhibition. In general, Kd refers to the constant that tells how readily two partners part at equilibrium. Read a low Kd as higher affinity.
